In data set [1] the target is T1, human Nectin-4 (Homo sapiens, UniProt Q96NY8).
T1 sequence (Q96NY8 32-510): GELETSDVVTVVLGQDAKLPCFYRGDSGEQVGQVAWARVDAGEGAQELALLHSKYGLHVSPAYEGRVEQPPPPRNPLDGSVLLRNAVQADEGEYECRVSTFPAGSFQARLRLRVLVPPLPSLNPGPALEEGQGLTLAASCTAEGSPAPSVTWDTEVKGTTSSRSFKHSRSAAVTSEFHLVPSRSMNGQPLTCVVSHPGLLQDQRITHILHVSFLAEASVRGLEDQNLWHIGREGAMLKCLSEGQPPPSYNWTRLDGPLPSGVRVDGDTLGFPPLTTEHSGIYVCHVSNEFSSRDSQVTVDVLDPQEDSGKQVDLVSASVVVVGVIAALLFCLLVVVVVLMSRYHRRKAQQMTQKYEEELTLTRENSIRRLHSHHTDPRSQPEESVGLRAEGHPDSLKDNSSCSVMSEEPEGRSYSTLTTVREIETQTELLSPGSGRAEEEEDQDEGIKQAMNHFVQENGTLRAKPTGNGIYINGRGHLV
Put plainly: Nectin-4 competition binding assay (fluorescence polarisation). The settings on record: competition with fluorescent peptide SEQ ID NO: 217; read-out: Ki. An outline of the steps: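 Ki derived by cubic-equation fit of mP data, with tracer peptide concentration, its Kd and Nectin-4 level as fixed inputs. Competition set up by adding 2-fold peptide dilutions (≤5% DMSO), then Nectin-4, then fluorescent peptide; polarisation measured as for direct binding.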

Data set [2] deals with T2, human Nectin-4 (Homo sapiens, UniProt Q96NY8).
T2 sequence (Q96NY8 32-349): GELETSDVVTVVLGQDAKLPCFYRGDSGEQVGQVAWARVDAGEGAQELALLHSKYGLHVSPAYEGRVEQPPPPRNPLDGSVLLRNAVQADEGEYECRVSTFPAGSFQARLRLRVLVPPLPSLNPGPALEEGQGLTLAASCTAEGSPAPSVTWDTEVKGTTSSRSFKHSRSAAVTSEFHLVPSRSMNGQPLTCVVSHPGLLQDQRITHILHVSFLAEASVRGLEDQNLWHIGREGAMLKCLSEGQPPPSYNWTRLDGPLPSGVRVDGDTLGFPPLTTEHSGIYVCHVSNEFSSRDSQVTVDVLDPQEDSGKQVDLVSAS
As to the kind of experiment: Nectin-4 Biacore SPR binding assay. (Surface plasmon resonance follows binding to a sensor surface in real time, without labels.)

In data set [3] the target is T1, human Nectin-4. As to the kind of experiment: Nectin-4 direct binding assay (fluorescence polarisation). The settings on record: fluorescently tagged peptide, TATA scaffold. The method, then:
Affinity of the peptides of the invention for human Nectin-4 (Ki) was determined using a fluorescence polarisation assay, in accordance with the methods disclosed in WO 2016/067035. Peptides of the invention with a fluorescent tag (either fluorescein, SIGMA or Alexa Fluor488™, Fisher Scientific) were diluted to 2.5 nM in PBS with 0.01% tween 20 or 50 mM HEPES with 100 mM NaCl and 0.01% tween pH 7.4 (both referred to as assay buffer). This was combined with a titration of protein in the same assay buffer as the peptide to give 1 nM peptide in a total volume of 25 μL in a black walled and bottomed low bind low volume 384 well plates, typically 5 μL assay buffer, 10 μL protein then 10 μL fluorescent peptide. […] Measurements were conducted on a BMG PHERAstar FS equipped with an “FP 485 520 520” optic module which excites at 485 nm and detects parallel and perpendicular emission at 520 nm. The PHERAstar FS was set at 25° C. with 200 flashes per well and a positioning delay of 0.1 second, with each well measured at 5 to 10 minute intervals for 60 minutes. The gain used for analysis was determined for each tracer at the end of the 60 minutes where there was no protein in the well. Data was analysed using Systat Sigmaplot version 12.0. mP values were fit to a user defined quadratic equation to generate a Kd value: f=ymin+(ymax−ymin)/Lig*((x+Lig+Kd)/2-sqrt((((x+Lig+Kd)/2)^2)−(Lig*x))). […]
In general terms: Fluorescence polarisation rises when a labelled molecule tumbles more slowly, as on binding a larger partner.

In a further data set the test system is HT-1376 xenograft. Put plainly: Example 2: in vivo efficacy in HT-1376 xenograft (bladder cancer model) in CB17-SCID mice. The settings on record: 1 mg/kg.

Broadly, the pKi is the Ki on a negative log10 scale, so that one unit is a factor of ten. Usually pKd stands for the negative decadic logarithm of the Kd, by convention in mol/L. A higher pKd goes with a small Kd.

pKd, pKi: −log10 of the molar value. *1 amine or outer side, *2 acyl side, *3 side chain or, on linkers, in order; H or OH if unused. Where a SMILES comes first, the peptide text is derived from it. Bridges are numbered along the chain shown (N, C = ends). Roman numbers before positions name the chains, in order. [ ]: non-standard residue; d: D form. The star is where a group is joined. TATA = O=C(CC[*:1])N1CN(C(=O)CC[*:2])CN(C(=O)CC[*:3])C1; Dolaproine = CO[C@@H]([C@@H]1CCCN1)[C@@H](C)C(=O)O; Dil = CC[C@H](C)[C@H](NC)[C@@H](CC(=O)O)OC; X3 = O=C(CCCC(=O)[*:2])NCCC(=O)[*:1]; PABC = O=C(OCc1ccc(N[*:1])cc1)[*:2]; X4 = C[C@@H](N*)[C@@H](O)c1ccccc1; hArg = N=C(N)NCCCC[C@H](N)C(=O)O; Cit = NC(=O)NCCC[C@H](N)C(=O)O; NMeV = CN[C@H](C(=O)O)C(C)C; Sar = CNCC(=O)O

Description for HT-1376 xenograft: The major endpoint was to see if the tumor growth could be delayed or mice could be cured. Tumor volume was measured three times weekly in two dimensions using a caliper, and the volume was expressed in mm^3 using the formula: V=0.5 a×b^2 where a and b are the long and short diameters of the tumor, respectively. The tumor size was then used for calculations of T/C value. The T/C value (in percent) is an indication of antitumor effectiveness; T and C are the mean volumes of the treated and control groups, respectively, on a given day. TGI was calculated for each group using the formula: TGI (%)=[1−(Ti−T0)/(Vi−V0)]×100; Ti is the average tumor volume of a treatment group on a given day, T0 is the average tumor volume of the treatment group on the day of treatment start, Vi is the average tumor volume of the vehicle control group on the same day with Ti, and V0 is the average tumor volume of the vehicle group on the day of treatment start.
A one-way ANOVA was performed to compare tumor volume among groups, and when a significant F-statistics (a ratio of treatment variance to the error variance) was obtained, comparisons between groups were carried out with Games-Howell test. […] P<0.05 was considered to be statistically significant.
• Species: Mus Musculus • Strain: CB17-SCID • Age: 6-8 weeks • Sex: female • Body weight: 18-22 g • Number of animals: 21-41 mice plus spare • Animal supplier: Shanghai LC Laboratory Animal Co., LTD.
The HT-1376 tumor cells were maintained in vitro as a monolayer culture in EMEM medium supplemented with 10% heat inactivated fetal bovine serum at 37° C. in an atmosphere of 5% CO2 in air. The tumor cells were routinely subcultured twice weekly by trypsin-EDTA treatment.
Each mouse was inoculated subcutaneously at the right flank with HT-1376 tumor cells (5×10^6) in 0.2 ml of PBS with matrigel (1:1) for tumor development. Animals were randomized when the average tumor volume reached 153-164 mm^3.
Tumor growth inhibition rate for Test articles in the HT-1376 xenograft model was calculated based on tumor volume measurements at day 21 after the start of treatment.

As to `CC[C@H](C)[C@@H]1NC(=O)[C@@H]2CCCN2C(=O)[C@H](Cc2c[nH]c3ccccc23)NC(=O)[C@H](CO)NC(=O)[C@H](Cc2c[nH]c3ccccc23)NC(=O)[C@H](CC(N)=O)NC(=O)[C@H](CCCCN)NC(=O)[C@H](CCSC)NC(=O)[C@@H]2CSCCC(=O)N3CN(CN(C3)C(=O)CCSC[C@H](NC(=O)[C@H](C)N)C(=O)N3CCC[C@H]3C(=O)N[C@@H](Cc3ccccc3)C(=O)NCC(=O)N2)C(=O)CCSC[C@@H](C(=O)N[C@@H](C)C(N)=O)NC(=O)[C@H](Cc2c[nH]c3ccccc23)NC1=O` [BCY428, A-(SEQ ID NO: 1)-A], the pKi on human Nectin-4 [1] was 7.21. At human Nectin-4 [2], this compound had a pKd of 6.48. In the case of `CC[C@H](C)[C@@H]1NC(=O)[C@H](CCCNC(=N)N)NC(=O)[C@H](CC(=O)O)NC(=O)[C@@H]2CSCCC(=O)N3CN(CN(C3)C(=O)CCSC[C@@H](C(=O)N[C@@H](C)C(N)=O)NC1=O)C(=O)CCSC[C@H](NC(=O)[C@H](Cc1c[nH]c3ccccc13)NC(=O)[C@H](CC(=O)O)NC(=O)[C@@H](N)C(C)C)C(=O)N[C@@H](C)C(=O)N1CCC[C@H]1C(=O)N[C@@H](CC(C)C)C(=O)N[C@@H](CC(=O)O)C(=O)N[C@@H](CC(=O)O)C(=O)N[C@@H](Cc1ccc(O)cc1)C(=O)N[C@@H](Cc1c[nH]c3ccccc13)C(=O)N2` [BCY462, VDW-(SEQ ID NO: 33)-A] (H-VDWCAPLDDYWCDRICA-NH2; linker 4-12-16 via TATA; N-terminus and C-terminus assumed), the pKi on human Nectin-4 [3] was 6.57.

For `CC[C@H](C)[C@@H]1NC(=O)[C@H](CCCNC(=N)N)NC(=O)[C@H](CC(N)=O)NC(=O)[C@@H]2CSCCC(=O)N3CN(CN(C3)C(=O)CCSC[C@@H](C(=O)N[C@@H](C)C(N)=O)NC1=O)C(=O)CCSC[C@H](NC(=O)[C@H](Cc1c[nH]c3ccccc13)NC(=O)[C@H](CCCCN)NC(=O)[C@@H](N)CCC(N)=O)C(=O)N[C@@H](C)C(=O)N1CCC[C@H]1C(=O)N[C@@H](CC(C)C)C(=O)N[C@@H](CO)C(=O)N[C@@H](CC(=O)O)C(=O)N[C@@H](Cc1ccc(O)cc1)C(=O)N[C@@H](Cc1c[nH]c3ccccc13)C(=O)N2` [BCY3400, QKW-(SEQ ID NO: 34)-A] (H-QKWCAPLSDYWCNRICA-NH2; linker 4-12-16 via TATA; N-terminus and C-terminus assumed), the negative logarithm of the Ki (pKi) is 7.14 at human Nectin-4 [3] and 7.33 at human Nectin-4 [1].

For `CC[C@H](C)[C@@H]1NC(=O)[C@@H]2CCCN2C(=O)[C@H](Cc2c[nH]c3ccccc23)NC(=O)[C@H](CO)NC(=O)[C@H](Cc2c[nH]c3ccccc23)NC(=O)[C@H](CC(N)=O)NC(=O)[C@H](CCCCN)NC(=O)[C@H](CCSC)NC(=O)[C@@H]2CSCCC(=O)N3CN(CN(C3)C(=O)CCSC[C@H](NC(C)=O)C(=O)N3CCC[C@H]3C(=O)N[C@@H](Cc3ccccc3)C(=O)NCC(=O)N2)C(=O)CCSC[C@@H](C(N)=O)NC(=O)[C@H](Cc2c[nH]c3ccccc23)NC1=O` [BCY7390, Ac-(SEQ ID NO: 1)] (Ac-CPFGCMKNWSWPIWC-NH2; linker 1-5-15 via TATA; C-terminus assumed), the pKi on human Nectin-4 [1] was 7.77. The same compound had a pKd on human Nectin-4 [2] of 7.39. For `CC[C@H](C)[C@@H]1NC(=O)[C@@H]2CCCN2C(=O)[C@H](Cc2c[nH]c3ccccc23)NC(=O)[C@H](CO)NC(=O)[C@H](Cc2c[nH]c3ccccc23)NC(=O)[C@H](CC(N)=O)NC(=O)[C@H](CCCCN)NC(=O)[C@H](CCSC)NC(=O)[C@@H]2CSCCC(=O)N3CN(CN(C3)C(=O)CCSC[C@H](NC(C)=O)C(=O)N3CCC[C@H]3C(=O)N[C@@H](Cc3ccccc3)C(=O)NCC(=O)N2)C(=O)CCSC[C@@H](C(=O)N[C@H](C(=O)N[C@@H](CC(N)=O)C(=O)N[C@@H](CCCCN)C(N)=O)[C@@H](C)O)NC(=O)[C@H](Cc2c[nH]c3ccccc23)NC1=O` [BCY7391, Ac-(SEQ ID NO: 1)-TNK] (Ac-CPFGCMKNWSWPIWCTNK-NH2; linker 1-5-15 via TATA; C-terminus assumed) the same measures were 7.88 and 7.22. For the compound `CC(=O)N[C@H]1CSCCC(=O)N2CN3CN(C2)C(=O)CCSC[C@H](NC(=O)[C@H](CC(=O)O)NC(=O)[C@H](Cc2ccc(O)cc2)NC(=O)[C@H](CO)NC(=O)[C@H]([C@@H](C)O)NC(=O)[C@H]([C@@H](C)O)NC(=O)[C@H](C(C)C)NC1=O)C(=O)N[C@@H](Cc1c[nH]c2ccccc12)C(=O)N[C@@H](C(C)C)C(=O)N[C@@H]([C@@H](C)O)C(=O)N[C@@H](CC(C)C)C(=O)NCC(=O)N[C@@H](Cc1c[nH]cn1)C(=O)N[C@H](C(=O)N[C@@H](CO)C(=O)N[C@@H](CCCNC(=N)N)C(=O)N[C@@H](Cc1ccccc1)C(N)=O)CSCCC3=O` [BCY7393, Ac-(SEQ ID NO: 37)-SRF] (Ac-CVTTSYDCWVTLGHCSRF-NH2; linker 1-8-15 via TATA; C-terminus assumed), the pKi at human Nectin-4 [1] was 6.63. In addition, the pKd on human Nectin-4 [2] is 5.86. As to `CC[C@H](C)[C@@H]([C@@H](CC(=O)N1CCC[C@H]1[C@H](OC)[C@@H](C)C(=O)N[C@H](C)[C@@H](O)c1ccccc1)OC)N(C)C(=O)[C@@H](NC(=O)[C@H](C(C)C)N(C)C(=O)OCc1ccc(NC(=O)[C@H](CCCNC(N)=O)NC(=O)[C@@H](NC(=O)CCCC(=O)NCCC(=O)N(C)CC(=O)N(C)CC(=O)N(C)CC(=O)N(C)CC(=O)N(C)CC(=O)N(C)CC(=O)N(C)CC(=O)N(C)CC(=O)N(C)CC(=O)N(C)CC(=O)N[C@H]2CSCCC(=O)N3CN4CN(C3)C(=O)CCSC[C@H](NC(=O)[C@@H](CC(=O)O)NC(=O)[C@H](Cc3ccccc3)NC(=O)[C@@H]3CCCN3C2=O)C(=O)N[C@@H](CCSC)C(=O)N[C@@H](CCCCNC(=N)N)C(=O)N[C@@H](CC(N)=O)C(=O)N[C@@H](Cc2c[nH]c3ccccc23)C(=O)N[C@@H](CO)C(=O)N[C@@H]([C@@H](C)O)C(=O)N2CCC[C@H]2C(=O)N[C@@H]([C@@H](C)CC)C(=O)N[C@@H](Cc2c[nH]c3ccccc23)C(=O)N[C@H](C(N)=O)CSCCC4=O)C(C)C)cc1)C(C)C` [BCY7825, MMAE-PABC-Cit-Val-Glutaryl-BCY7814] (I: [Sar][Sar][Sar][Sar][Sar][Sar][Sar][Sar][Sar][Sar]CPF[dD]CM[hArg]NWSTPIWC-NH2 / II: V[Cit][PABC][NMeV]V[Dil][Dolaproine]-X4; linker I:11-I:15-I:25 via TATA; linker I:N-II:N via X3), the “bodyweight (in words)” value in the data set with HT-1376 xenograft is reported as “maintained the bodyweight well”. Also, the pKd at human Nectin-4 [2] was 7.94. With `CC(=O)N[C@H]1CSCCC(=O)N2CN3CN(C2)C(=O)CCSC[C@H](NC(=O)[C@@H](CC(=O)O)NC(=O)[C@H](Cc2ccccc2)NC(=O)[C@@H]2CCCN2C1=O)C(=O)N[C@@H](CC(C)C)C(=O)N[C@@H](CCCCNC(=N)N)C(=O)N[C@@H](CC(N)=O)C(=O)N[C@@H](Cc1c[nH]c2ccccc12)C(=O)N[C@@H](CO)C(=O)N[C@@H]([C@@H](C)O)C(=O)N1CCC[C@H]1C(=O)N1CCC[C@H]1C(=O)N[C@@H](Cc1c[nH]c2ccccc12)C(=O)N[C@H](C(N)=O)CSCCC3=O` [BCY8038, Ac-(SEQ ID NO: 160)] (Ac-CPF[dD]CL[hArg]NWSTPPWC-NH2; linker 1-5-15 via TATA; C-terminus assumed), the pKi at human Nectin-4 [1] was 8.10. On human Nectin-4 [2], this compound gave a pKd of 7.35.
